Patent US8354381B2, “Peptide compositions for oral care systems” (E I du Pont de Nemours and Company, priority 2009, dated 2013)
Where no end group is shown, it is not given here. The star is where a group is joined. Biotin = O=C1N[C@H]2[C@H](CS[C@H]2CCCCC(=O)*)N1

Each substance was assayed on pellicle-coated HAP disks (assay: Phage ELISA on pellicle-coated HAP disks). Details: over 10^10 pfu phage, A450.
Type: binding, human
From the text: A total of 20 selected phage candidates (Example 1) were used in a phage ELISA experiment. Purified phage lysates were used for binding to pellicle-coated HAP disks using an anti-M13 phage antibody conjugated to horseradish-peroxidase, followed by the addition of chromogenic agent TMB (3,3′,5,5′-tetramethylbenzidine), obtained from Pierce Biotechnology (Item #34021; Rockford, Ill.). The plates were read at A450 nm.
For each phage candidate to be tested, the pellicle-coated HAP disks (3 mm diameter) was incubated for 1 h at room temperature with 200 μL of blocking buffer, consisting of 2% non-fat dry milk (Schleicher & Schuell, Inc.) in TBS. […] The tube was rinsed 6 times with wash buffer consisting of TBST-0.05%. The wells were filled with 200 μL of TBST-0.5% containing 1 mg/mL BSA (bovine serum albumin) and then 10 μL (over 10^10 pfu) of purified phage stock was added. The samples were incubated at room temperature for 60 min with slow shaking. The non-binding phage were removed by washing 6 times with TBST-0.5%. […] The conjugate solution was removed and was washed 6 times with TBST-0.5%.

Row | Substance | O.D.450
1 | DECMHGSDVEFCTS (Synthetic oral-surface binding peptide) [Pell 4] | 0.664
2 | TPCAPASFNPHCSR (Synthetic oral-surface binding peptide) [Pell 18] | 0.416
3 | ASVSNYPPIHHLATSNTTVN (Synthetic oral-surface binding peptide) [Pell 2] | 0.75
4 | GNTDTTPPNAVMEPTVQHKW (Synthetic oral-surface binding peptide) [Pell 9] | 0.755
5 | NNTWPEGAGHTMPSTNIRQA (Synthetic oral-surface binding peptide) [Pell 13] | 0.598
6 | EPTHPTMRAQMHQSLRSSSP (Synthetic oral-surface binding peptide) [Pell 8] | 0.712
7 | NGPDMVQSVGKHKNS (Synthetic oral-surface binding peptide) [Pell 10] | 0.729
8 | AHPESLGIKYALDGNSDPHA (Synthetic oral-surface binding peptide) [Pell 1] | 0.739
9 | DPNESNYENATTVSQPTRHL (Synthetic oral-surface binding peptide) [Pell 7] | 0.831
10 | TPCATYPHFSGCRA (Synthetic oral-surface binding peptide) [Pell 19] | 0.731
11 | DLCSMQMMNTGCHY (Synthetic oral-surface binding peptide) [Pell 5] | 0.83
12 | DLCSSPSTWGSCIR (Synthetic oral-surface binding peptide) [Pell 6] | 0.735
13 | WCTDFCTRSTPTSTSRSTTS (Synthetic oral-surface binding peptide) [Pell 20] | 0.715
14 | NGPEVRQIPANFEKL (Synthetic oral-surface binding peptide) [Pell 11] | 0.607
15 | NPTDHIPANSTNSRVSKGNT (Synthetic oral-surface binding peptide) [Pell 15] | 0.567
16 | NNTSADNPPETDSKHHLSMS (Synthetic oral-surface binding peptide) [Pell 12] | 0.521
17 | NPTATPHMKDPMHSNAHSSA (Synthetic oral-surface binding peptide) [Pell 14] | 0.7
18 | DECMEPLNAAHCWR (Synthetic oral-surface binding peptide) [Pell 3] | 0.49
19 | NPTDSTHMMHARNHE (Synthetic oral-surface binding peptide) [Pell 16] | 0.578
20 | QHCITERLHPPCTK (Synthetic oral-surface binding peptide) [Pell 17] | 0.614

What follows are substances tested on pellicle coated bovine enamel (assay: Phage ELISA on pellicle coated bovine enamel (Example 6)). Details: 10^11 pfu phage, 30 min in vivo pellicle on bovine enamel, normalized to an internal control.
Type: binding, human
Protocol: A total of 29 selected phage candidates from Table 5 were used in phage ELISA Experiment to determine binding affinity and coverage of each phage on pellicle substrates. Purified phage lysates were used for binding to pellicle coated bovine enamel using an anti-M13 phage antibody conjugated to horseradish-peroxidase, followed by the addition of chromogenic agent TMB. The plates were read at A450 nm.
The wells were filled with 1 mL of 10^11 pfu purified phage stock which was prepared by diluting in blocking buffer. […] The non-binding phage was removed by washing 5 times with PBST. […] The conjugate solution was removed and was washed 3 times with PBST.

Row | Substance | O.D.450 (normalized)
21 | VNPNWVETQALHQPPGNT (Synthetic oral-surface binding peptide) [DenP20] | 1.298
22 | YLLPKDQTTAPQVTPIVQHK (Synthetic oral-surface binding peptide) [DenP5] | 1.087
23 | AVVPADLNDHANHLS (Synthetic oral-surface binding peptide) [DenP10] | 1.619
24 | DLGTFPNRTLKMAAH (Synthetic oral-surface binding peptide) [DenP11] | 1.663
25 | ELDHDSRHYMNGLQRKVT (Synthetic oral-surface binding peptide) [DenP15] | 1.112
26 | QAAQVHMMQHSRPTT (Synthetic oral-surface binding peptide) [DenP13] | 0.845
27 | DHNNRQHAVEVRENKTHTAR (Synthetic oral-surface binding peptide) [DenP21] | 0.728
28 | TNDLHANPFTGTYIAPDPTS (Synthetic oral-surface binding peptide) [DenP30] | 1.082
29 | SEARARTFNDHTTPMPII (Synthetic oral-surface binding peptide) [DenP14] | 2.498
30 | KAPIANMLQPHSYQYSVA (Synthetic oral-surface binding peptide) [DenP18] | 1.143
31 | TTGSSSQADTSASMSIVPAH (Synthetic oral-surface binding peptide) [DenP17] | 0.971
32 | QVPDYLSPTHQKKAFLEIPT (Synthetic oral-surface binding peptide) [DenP29] | 0.976
33 | HDPNHLTHQARTIYRNANHT (Synthetic oral-surface binding peptide) [DenP23] | 1.236
34 | HKNAIQPVNDATTLDTTM (Synthetic oral-surface binding peptide) [DenP9] | 1.364
35 | APPTYQTASYPHNLPSKRKM (Synthetic oral-surface binding peptide) [DenP28] | 1.203
36 | FDGIGLGTATRHQNR (Synthetic oral-surface binding peptide) [DenP12] | 2.079
37 | DTIHPNKMKSPSSPL (Synthetic oral-surface binding peptide) [DenP26] | 1.039
38 | NGNNHTDIPNRSSYTGGSFA (Synthetic oral-surface binding peptide) [DenP1] | 1.002
39 | HKNENIMQYNVNDRWHITPA (Synthetic oral-surface binding peptide) [DenP32] | 1.441
40 | VEPATKNMREARSSTQMRRI (Synthetic oral-surface binding peptide) [DenP4] | 1.421
41 | IPWWNIRAPLNAGGG [Control, reference compound] | 1.000
42 | TMTNHVYNSYTEKHSSTHRS (Synthetic oral-surface binding peptide) [DenP2] | 1.951
43 | GPQHVLMQDTHQGYAFDN (Synthetic oral-surface binding peptide) [DenP16] | 2.190
44 | SNATMYNIQSHSHHQ (Synthetic oral-surface binding peptide) [DenP24] | 0.979
45 | TYQGVPSWPAVIDDAIRR (Synthetic oral-surface binding peptide) [DenP19] | 1.052
46 | GMPTRYYHNTPPHLTPKF (Synthetic oral-surface binding peptide) [DenP8] | 1.182
47 | IYPNESMSTSNVRGPYHP (Synthetic oral-surface binding peptide) [DenP22] | 1.420
48 | ANELSTYAQTNPGSG (Synthetic oral-surface binding peptide) [DenP25] | 0.909
49 | EFPYYNDNPPNPERHTLR (Synthetic oral-surface binding peptide) [DenP7] | 1.500

These substances were tested on pellicle coated enamel substrates (assay: not given). Details: 20 μM biotinylated peptide, streptavidin-HRP, normalized to DenP03, three replicates.
Protocol: A total of 20 synthetic peptides were manufactured using sequences obtained from Table 6. Peptides were obtained from SynBioSci Corp. (Livermore, Calif.) and included an additional sequence (SSRP; SEQ ID NO: 118) at the N-terminus and biotin labeled lysine at the C-terminus.
Enamel substrates were cut into approximately 7 mm squares and mounted on wax mounting for incubation in the mouth for 30 min to form a pellicle coated surface. The pellicle coated enamel substrates were removed from the wax backing and placed in well plates with the pellicle surface exposed as in Example 5. Each pellicle coated substrate was incubated for 1 h at room temperature (˜22° C.) with 1 mL of blocking buffer, consisting of 1 mg/mL BSA in PBST (Pierce BUPH™ #28372 with 0.1% TWEEN® 20). The blocking buffer was removed by aspirating the liquid out of each well. The tube was rinsed 2 times with wash buffer consisting of PBST. The wells were filled with 500 μL of 20 μM peptide solution which was prepared by diluting in blocking buffer. The samples were incubated for 30 min with slow shaking at 37° C. The non-binding peptide was removed by washing 6 times with PBST. Then, 500 μL of horseradish peroxidase/streptavidin conjugate (Pierce #22127), diluted 1:2000 in PBST, was added and incubated for 1 h at room temperature (˜22° C.). The conjugate solution was removed and was washed 4 times with PBST.
Each enamel substrate was removed from the well and washed again in a 15-mL test tube with 10 mL of PBST. Each enamel substrate was then mounted in a clean well plate with only the enamel surface exposed. A 1:1 solution of TMB substrate and H2O2 (200 μL) was added to each well and the color was allowed to develop for between 10 to 20 min, typically for 15 min, at room temperature (˜22° C.). Then, 100 μL of solution from each well was transferred to a 96 well reading plate containing stop solution (100 μL of 2 M H2SO4) in each well. The A450 was measured using a microplate spectrophotometer (Molecular Devices, Sunnyvale, Calif.). […] Each sequence was tested with three replicate enamel coated pellicle substrates.

Row | Substance | O.D.450 (normalized)
50 | SSRPNGNNHTDIPNRSSYTGGSFAK(Biotin) [DenP1-A] | 0.154
51 | SSRPTTGSSSQADTSASMSIVPAHK(Biotin) [DenP17-A] | 0.143
